According to patent US20050255147A1, “Composition for dietary enrichment” (ZOOLIFE INTERNATIONAL LIMITED, priority 2002, published 2005):

System: clown fish
Test: Skin coloration of clown fish on supplemented diet
Format: in vivo
Settings: synthetic astaxanthin 1000 mg/kg granulated diet, compositions below 50 mg/kg astaxanthin in final feed

CC1=C(/C=C/C(C)=C/C=C/C(C)=C/C=C/C=C(C)/C=C/C=C(C)/C=C/C2=C(C)C(=O)[C@@H](O)CC2(C)C)C(C)(C)C[C@H](O)C1=O [synthetic astaxanthin, astaxanthin]
skin coloration: do not to significantly alter skin coloration
